Holding throughout (type): in vivo
The test system of assay [1] is Cnaphalocrocis medinalis (rice leaf rollers). The experiment in a line: Activity against Cnaphalocrocis medinalis (rice leaf rollers). The following applies: compound by itself.
Assay [2] has as its system Nephotettix cincticeps (green leaf hopper). The experiment in a line: Activity against Nephotettix cincticeps (green leaf hopper), % mortality. To be noted: for activity against Nephotettix cincticeps (green leaf hoppers), in words: compound by itself. From the text:
In experiments on activity against Nephotettix spp. (rice leaf hoppers), for example, Nephotettix cincticeps (green leaf hopper), carried out on representative compounds of the first preferred embodiment, the following results (wherein ppm indicates the concentration of the compound in parts per million of the test solution applied) have been obtained, as shown in Table 7: […]

Assay [3] concerns Nilaparvata lugens (brown planthoppers). The experiment in a line: Activity against Nilaparvata lugens (brown planthoppers). To be noted: compound by itself.

With `CC[S+]([O-])c1c(C#N)nn(-c2c(Cl)cc(C(F)(F)F)cc2Cl)c1N` (stereo not drawn) [Ethiprole, ethiprole], the “activity against Cnaphalocrocis medinalis (rice leaf rollers), in words” value in assay [1] is reported as “not particularly active”. Moreover, the “activity against Nephotettix cincticeps (green leaf hoppers), in words” value in assay [2] is reported as “some activity by itself”. For the same compound, in assay [3], the “activity against Nilaparvata lugens (brown planthoppers), in words” value is listed as “shows activity”.

For `COC(=O)N(C(=O)N1COC2(C(=O)OC)Cc3cc(Cl)ccc3C2=N1)c1ccc(OC(F)(F)F)cc1` (stereo not drawn) [Indoxacarb, indoxacarb], the “activity against Cnaphalocrocis medinalis (rice leaf rollers), in words” value is “very active” in assay [1] and “active” in assay [1] (listed as indoxacarb). Moreover, the mortality at 6.25 ppm in assay [2] (Nephotettix cincticeps, Indoxacarb 6.25 ppm alone (Ethiprole 0 ppm)) worked out at 0%. Also, the mortality at 12.5 ppm in assay [2] (Nephotettix cincticeps, Indoxacarb 12.5 ppm alone (Ethiprole 0 ppm)) came out at 16.2%. The compound further registered a mortality at 25 ppm in assay [2] (Nephotettix cincticeps, Indoxacarb 25 ppm alone (Ethiprole 0 ppm)) of 38%. Also, the “activity against Nephotettix cincticeps (green leaf hoppers), in words” value in assay [2] was “some activity by itself”; in assay [2] (listed as indoxacarb) it was “active”. Moreover, the “activity against Nilaparvata lugens (brown planthoppers), in words” value was “not particularly active” in assay [3] and “not particularly effective” in assay [3] (listed as indoxacarb).

The term mortality denotes the share of the test organisms that died.

The record behind these values is patent US6492357B1, “Compositions and methods for controlling insects which damage rice and other crops” (Aventis CropScience, S.A., priority 1999, dated 2002).
